Entries after “also recorded” stand apart in the source; their conditions may differ.
Test system: PC-9 cells
Experiment: Soft agar clonogenic assay, PC-9
Assay type: cell-based
Conditions: 14 days, 3.75-15 μM
Procedure: We utilized an MTT assay to determine the potency of the compounds for inhibiting cell growth. […] We next asked whether T151742 induced inhibition of cell growth was dependent on ERO1α expression. As shown in FIG. 6C two ERO1α deleted clones in the PC-9 cell line were isolated. Using an MTT assay to determine overall cellar viability, a non-targeted control (scramble), and both ERO1α knockout clones was subjected to treatment with T151742 for 72 hours (See FIG. 6D). […] Though only slight differences were observed between T151742 and EN-460 we tested the effects of these compounds in a clonogenic assay which is a better test for inhibition of self-renewal.
FIG. 7A and FIG. 7B show 1000 cells/well were plated in a 12-well plate in triplicate with either 0.5% DMSO, T151742, or EN-460 and allowed to form colonies for 14 days. Colonies were subsequently stained with 0.01% Crystal Violet, imaged, and quantified using ImageJ. […] Colonies were stained with 0.01% Crystal Violet, imaged, and quantified using ImageJ.
Cell Lines: PC-9 cell line used was obtained from Sigma Aldrich and grown in RPMI 1640 medium with 10% fetal bovine serum and 1% penicillin/streptomycin. […] Plate was then read on the BioTek Cytation 5 at 530/590 nm. […] Plate was then read at 570 nm. […] Images were then quantified using ImageJ. […]

## CN(C)c1ccc(/C=C2\Oc3cc(O)ccc3C2=O)cc1 [Compound T151742]
  activity in clonogenicity assay (colony number): retained activity; also recorded: significantly more potent at reducing colony number

Source: patent publication US20250064773A1, “TARGETING ERO1 ALPHA WITH AURONE DERIVATIVES” (West Virginia University Board of Governors on behalf of …, priority 2021, published 2025)
